Molecules are shown by their SMILES. Activity calls are given as the source filed them. No cut-off for these calls is given here.

Type in all cases: functional, cell-based
Experiment [1] can be described thus: Reactivation of MeCp2 […] expression in human GM11272 cells at 10 to 100 nM by PCR method.
Experiment [2] is described as follows: Reactivation of MeCp2 […] expression in human GM11272 cells at 1 to 100 nM by PCR method.
The nature of experiment [3]: Reactivation of MeCp2 […] expression in human GM11272 cells at 1 to 10000 nM by PCR method.
A short description of experiment [4]: Reactivation of MeCp2 […] expression in human GM11272 cells after 6 days by PCR method.

Take `O=C(CCCCCCC(=O)Nc1ccccc1)NO`: the result in experiment [1] was inactive.

As to `O=c1ncccn1[C@@H]1O[C@H](CO)[C@@H](O)[C@H]1O`, the result in experiment [2] was inactive. For `O=C(O)[C@H](Cc1c[nH]c2ccccc12)N1C(=O)c2ccccc2C1=O`, the result in experiment [1] was inactive. With `CCCC(CCC)C(=O)O`, the result in experiment [3] was inactive.

On to `Nc1ccccc1NC(=O)c1ccc(CNC(=O)OCc2cccnc2)cc1`, for which the result in experiment [4] was inactive. Still for that read-out and setting: under `CCC(=O)CCCCC[C@@H]1NC(=O)[C@H]2CCCCN2C(=O)[C@H]([C@@H](C)CC)NC(=O)[C@H](Cc2cn(OC)c3ccccc23)NC1=O` stands “inactive”.

Turning to `Cc1[nH]c2ccccc2c1CCNCc1ccc(/C=C/C(=O)NO)cc1`, the outcome in experiment [2] was inactive.

On to `CC(/C=C/C(=O)NO)=C\[C@@H](C)C(=O)c1ccc(N(C)C)cc1`, for which, in experiment [2], the outcome was inactive.

For the compound `Nc1ncn([C@H]2C[C@H](O)[C@@H](CO)O2)c(=O)n1`, the outcome in experiment [2] and in experiment [4] was inactive.

The record behind these values is ChEMBL document CHEMBL1833834, “Clonal Rett Syndrome cell lines to test compounds for activation of wild-type MeCP2 expression” (Bioorg Med Chem Lett, 2011).
